In patent US10011615B2, “Heterobicyclo-substituted [1,2,4]triazolo[1,5-c]quinazolin-5-amine compounds with A2A anatagonist properties” (Merck Sharp & Dohme Corp., priority 2012, dated 2018):

These molecules were tested against T1, human A2a receptor (Homo sapiens, UniProt P29274) (assay: A2a receptor competition binding assay using Scintillation Proximity technology). Details: membranes from HEK293 cells expressing human A2a receptor; 0.5 nM tritiated radioligand; SPA beads; 1 h room temperature.
T1 construct: purchased Perkin-Elmer RBHA2AM400UA; host or cells: HEK293 cell membranes
Experimental: Binding affinities of compounds of the invention for the human A2a receptor were determined in a competition binding assay using Scintillation Proximity technology. Thus, 0.3 μg of membranes from HEK293 cells expressing the human A2a receptor were incubated with a compound of the invention at concentrations ranging from 3000 nM to 0.15 nM in a reaction mixture containing also 0.5 nM of a tritiated form of 5-amino-7-[2-phenethyl]-2-(furan-2-yl)-7H-pyrazolo[4,3-e][1,2,4]triazolo[1,5-c]pyrimidine (the tritiated compound) and 100 μg of wheat germ agglutin-coated yttrium silicate SPA beads for one hour at room temperature with agitation. The beads were then allowed to settle to the bottom of the wells for 1 hr, after which the membrane-associated radioactivity was determined by scintillation counting in a TopCount microplate reader. Ki values were determined using the Cheng-Prusoff equation.
Summary of Materials and Methods Used in A2a Activity Determination:
HEK293 cells expressing the human, rat, dog or monkey adenosine 2a receptor (Purchased from Perkin-Elmer # RBHA2AM400UA).
The Tritiated compound was prepared in-house by MRL Radiochemistry according to published methods.
Wheat germ agglutinin-coated yttrium silicate SPA beads (GE Healthcare#RPNQ0023). Dilute to 25 mg/ml in assay buffer.
Assay Buffer was prepared in house: Dulbecco's calcium and magnesium free phosphate buffered saline+10 mM MgCl2
Adenosine deaminase from calf intestine, 10 mg/2 ml (Roche) 10 102 105 001).
A2a antagonist standard (9-chloro-1-(2-furanyl)-[1,2,4]triazolo1,5-c]quinazolin-5-amine from Tocris Bioscience)
Make eight 1:3 serial dilutions in 100% DMSO from a 3 mM compound stock
Transfer 50 nl of compound into a 384-well OptiPlate (Perkin Elmer).
Typically, final concentrations of compound used in the assay ranged from 3000 nM to 0.152 nM.
Dilute a solution of the Tritiated compound to 1.25 nM in assay buffer. This is a 2.5× solution. The final concentration in the assay is 0.5 nM. Calculate the concentration by counting two 5 μl aliquots.
Use 0.25 ug of membrane/well. Dilute membranes to 9.7 μg/ml in assay buffer. Treat with 20 ug/ml adenosine deaminase (ADA) for 15 minutes at room temperature to degrade endogenous adenosine.
Use 100 μg/well wheat germ agglutinin-coated yttrium silicate SPA beads.
Mix ADA-treated membranes and SPA beads together for 30 min prior to assay.
To the Perkin-Elmer Optiplate-384 containing the compound titration add 20 μl of 2.5× solution of the Tritiated compound and 30 μl of the membrane-bead mixture. Incubate for one hour at room temperature with agitation.
Include total binding (assay buffer+1% DMSO) and non-specific binding (CGS15943, 1 μM) wells.
Allow the beads to settle for one hour.
A curve fitting program (i.e., Prism, Activity Base, Chemcart) is used to determine the EC50. The Ki value is calculated using the Cheng-Prusoff equation: K i=EC50/(1+(radioligand concentration/Kd)).

T1 sequence (P29274 whole entry): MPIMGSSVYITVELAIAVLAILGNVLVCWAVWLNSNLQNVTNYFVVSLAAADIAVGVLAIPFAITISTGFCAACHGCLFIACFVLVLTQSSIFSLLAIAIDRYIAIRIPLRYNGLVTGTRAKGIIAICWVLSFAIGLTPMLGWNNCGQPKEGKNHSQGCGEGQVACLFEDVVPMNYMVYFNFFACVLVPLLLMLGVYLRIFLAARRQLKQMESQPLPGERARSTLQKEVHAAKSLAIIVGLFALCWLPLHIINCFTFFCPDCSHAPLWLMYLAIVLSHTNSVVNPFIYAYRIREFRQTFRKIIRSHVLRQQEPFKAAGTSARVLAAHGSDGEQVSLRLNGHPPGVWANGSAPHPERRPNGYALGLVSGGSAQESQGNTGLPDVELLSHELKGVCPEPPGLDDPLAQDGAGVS

EC50 [nM] | Structure (SMILES)
2.5 | COc1cccc2c1nc(N)n1nc(CCN3CCCn4nc(C#N)cc4C3)nc21 [Ex-61, 5-(2-(5-amino-7-methoxy-[1,2,4]triazolo[1,5-c]quinazolin-2-yl)ethyl)-5,6,7,8-tetrahydro-4H-pyrazolo[1,5-a][1,4]diazepine-2-carbonitrile]
6.2 | COc1cccc2c1nc(N)n1nc(CCN3Cc4ccccc4C(C)(C)C3)nc21 [Ex-62, 2-(2-(4,4-dimethyl-3,4-dihydroisoquinolin-2(1H)-yl)ethyl)-7-methoxy-[1,2,4]triazolo[1,5-c]quinazolin-5-amine]
5.8 | COc1cccc2c1nc(N)n1nc(CCN3Cc4ccc(N5CCN(C)CC5)nc4C3)nc21 [Ex-63, 7-methoxy-2-(2-(2-(4-methylpiperazin-1-yl)-5H-pyrrolo[3,4-b]pyridin-6(7H)-yl)ethyl)-[1,2,4]triazolo[1,5-c]quinazolin-5-amine]
6.9 | COc1cccc2c1nc(N)n1nc(CCN3Cc4ccc(N5CCOCC5)nc4C3)nc21 [Ex-64]
13.6 | COc1cccc2c1nc(N)n1nc(CCN3Cc4ccc(N5CCCC5)nc4C3)nc21 [Ex-65]
16.6 | CCN1CCN(c2ccc3c(n2)CN(CCc2nc4c5cccc(OC)c5nc(N)n4n2)C3)CC1 [Ex-66]
7 | COc1cccc2c1nc(N)n1nc(CCN3Cc4ccc(N5CCOC(C)(C)C5)nc4C3)nc21 [Ex-68]
5.2 | COc1cccc2c1nc(N)n1nc(CCN3Cc4ccc(N5C[C@@H](C)O[C@@H](C)C5)nc4C3)nc21 [Ex-69]
6.8 | COc1cccc2c1nc(N)n1nc(CCN3Cc4ccc(N5CCN(CC6CC6)CC5)nc4C3)nc21 [Ex-70]
2.9 | COc1cccc2c1nc(N)n1nc(CCN3Cc4ccc(N5CCN(c6ccc(F)cc6)CC5)nc4C3)nc21 [Ex-71]
5 | COc1cccc2c1nc(N)n1nc(CCN3Cc4ccc(N5CCC(N6CCOCC6)CC5)nc4C3)nc21 [Ex-72]
3 | CCN1CCN(c2ccnc3c2CCN(CCc2nc4c5cccc(OC)c5nc(N)n4n2)C3)CC1 [Ex-73, 2-(2-(4-(4-ethylpiperazin-1-yl)-5,6-dihydro-1,7-naphthyridin-7(8H)-yl)ethyl)-7-methoxy-[1,2,4]triazolo[1,5-c]quinazolin-5-amine]
4.3 | CCN(CC)c1ccnc2c1CCN(CCc1nc3c4cccc(OC)c4nc(N)n3n1)C2 [Ex-74]
3.7 | COc1cccc2c1nc(N)n1nc(CCN3CCc4c(N5CCC(F)(F)C5)ccnc4C3)nc21 [Ex-76]
36.2 | COc1cccc2c1nc(N)n1nc(CC(=O)N3Cc4cccnc4C3)nc21 [Ex-77, 2-(5-amino-7-methoxy[1,2,4]triazolo[1,5-c]quinazolin-2-yl)-1-(5,7-dihydro-6H-pyrrolo[3,4-b]pyridin-6-yl)ethanone]
13.8 | COc1cccc2c1nc(N)n1nc(CC(=O)N3CCc4ccccc4CC3)nc21 [Ex-78]
22.3 | Nc1nc2c(OCF)cccc2c2nc(CCN3Cc4cccnc4C3)nn12 [Ex-79, 2-(2-(5H-pyrrolo[3,4-b]pyridin-6(7H)-yl)ethyl)-7-(fluoromethoxy)-[1,2,4]triazolo[1,5-c]quinazolin-5-amine]
12 | Nc1nc2c(Cl)cccc2c2nc(CCN3Cc4ccc(F)cc4C3)nn12 [Ex-80, 7-chloro-2-(2-(5-fluoroisoindolin-2-yl)ethyl)-[1,2,4]triazolo[1,5-c]quinazolin-5-amine]
24.7 | Nc1nc2c(Cl)cccc2c2nc(CCN3CCCc4ccccc43)nn12 [Ex-82]
15.9 | Nc1nc2c(F)cccc2c2nc(CCN3Cc4cccnc4C3)nn12 [Ex-83, 2-[2-(5,7-dihydro-6H-pyrrolo[3,4-b]pyridin-6-yl)ethyl]-7-fluoro[1,2,4]triazolo[1,5-c]quinazolin-5-amine]
6.3 | Nc1nc2c(F)cccc2c2nc(CCN3CCCc4ccccc43)nn12 [Ex-84]
22.2 | Nc1nc2c(F)cccc2c2nc(CCN3Cc4ccc(F)cc4C3)nn12 [Ex-85]
6.7 | CCc1nnc2n1CCN(CCc1nc3c4cccc(F)c4nc(N)n3n1)C2 [Ex-86]
19.1 | Nc1nc2c(F)cccc2c2nc(CCN3CCc4ccccc4C3)nn12 [Ex-87]
